The values that follow are results of earlier work, collected in US9622981B2, “Liquid-filled hard gel capsule pharmaceutical formulations” (Mylan Inc., priority 2011, dated 2017).

For series [1] the following is noted: ordinary conditions.
Test in series [2]: not given
This is another data set of the same source.

Take `C[C@]12C=CC(=O)N[C@@H]1CC[C@@H]1[C@@H]2CC[C@]2(C)[C@@H](C(=O)Nc3cc(C(F)(F)F)ccc3C(F)(F)F)CC[C@@H]12` [Dutasteride, (5α,17β)-N-[2,5 bis(trifluoromethyl)phenyl]-3-oxo-4-azaandrost-1-ene-17-carboxamide]: the “partition coefficient, Log P” value is recorded as 5.609±0.618. Also, in series [1], the stability entry is reported as “stable under ordinary conditions”. In series [2], the solubility in water entry is “insoluble”.
